Where two headings read alike, the source gives them in different places.
Assay: Tissue distribution of THP, DHC and protopine in rat tissues after gastric gavage administration (HPLC-UV, non-compartmental analysis)
Format: in vivo, Wistar male rats
Conditions: for AUC(0-t) / Cmax / MRT / Tmax: male, Wistar, po, 6.45 mg/kg; for AUC(0-t): read-out: AUC0–24 h of THP; for Cmax: read-out: Cmax of THP; for MRT: read-out: MRT of THP; for Tmax: read-out: Tmax of THP
Method: The experimental protocol was approved by the University's Animal Ethics Committee. […] Rats had unlimited access to water. Standard food was given until 12 h before the experiments. Rhizoma Corydalis was processed according to Pharmacopoeia of Chinese Medicine and National Guideline of Traditional Chinese Medicinal Plants Processing. Briefly, fresh Rhizoma Corydalis was boiled in water till the pith turn light brown color. Cooked rhizome was sliced into pieces (4 mm, diameter) and dried at 25 °C. Dried slices were mixed with edible vinegar (100:20, rhizome/vinegar, w/v) or yellow wine (100:10, rhizome/wine, w/v) and the slices allowed to completely absorb the vinegar or wine. The soaked slices were then stir-fried in a metallic pan over a low flame till they were completely dry. The processed Rhizoma Corydalis was added with 70% ethanol (1:30 w/v) and sonicated for 1 h at room temperature. The extract was then concentrated to remove the ethanol residue and stored at 4 °C for further use. […] The ethanol extract of the unprocessed Rhizoma Corydalis and THP, DHC and protopine pure compound were used as the controls. Three hundred and sixty healthy rats were used in total and are divided into six groups (Group 1-6, sixty rats per group). Drugs were administrated by gastric gavage method. In order to keep the dose of THP, DHC and protopine constant in each group, the amount of ethanol extract of Rhizoma Corydalis administrated was normalized based on the dose of protopine pure compound used. The dose of THP and DHC pure compound administrated was same with that in the ethanol extract of Rhizoma Corydalis. The details were listed below. […] Rats were administrated with the 70% ethanol extract of unprocessed Rhizoma Corydalis at a dose of 17.75 g extract/kg body weight. […] Rats received the extract of vinegar-processed Rhizoma Corydalis at a dose of 15 g extract/kg rat body weight. Group 3: Rats were administrated with the extract of wine processed Rhizoma Corydalis at a dose of 15.78 g extract/kg body weight. […] Rats received THP pure compound at a dose of 6.45 mg/kg body weight. Group 6: Rats were administrated 26.10 mg of DHC pure compound/kg body weight. […] Brian tissue was further dissected into six parts: cerebrum, cerebellum, diencephalons, brain stem, hippocampus and striatum. All the tissue samples were rinsed with ice-old saline and stored at -20 °C until extraction. Tissue samples were homogenized in three volumes of ice-cold biological saline and centrifuged for 10 min at 10,000 g and 4 °C. An aliquot of the supernatant (0.5 mL) was collected. Liquid-liquid extraction was used to extract THP, DHC and protopine. One hundred microliter of 1.0 μg/mL nuciferin (internal standard) was mixed with 0.5 mL aliquots of the supernatant. […] The supernatant was evaporated completely under the nitrogen stream in a 60 °C water bath. The residue was redissolved in 100 μL of methanol. A CoMetro HPLC system (CoMetro Technology Ltd, South […], NJ, USA) with 6000 PVW detector UV-VIS detector was used. […] Ltd., Liaoning, China). Other chromatographic conditions were: column temperature, 35 °C; mobile phase, acetonitrile-0.1% phosphoric acid (pH 3.0) (30:70 v/v); flow rate, 1 mL/min; wavelength, 280 nm. Pharmacokinetic parameters were estimated by non-compartmental analysis using Equiv Test/PK (Statistical Solutions Ltd., Saugus, MA, USA). The maximum concentration (Cmax) and the time to reach the maximum concentration (Tmax) were directly obtained from the observed value. All data were represented as mean ± SD. Comparison of values between groups was performed using one-way ANOVA followed by Tukey's test for comparisons among four groups.

SMILES: COc1cc2c(cc1OC)[C@@H]1Cc3ccc(OC)c(OC)c3CN1CC2 [THP, tetrahydropalmatine]
- AUC(0-t) (rat brainstem): 1490 ± 340 ng·h/mL
- Cmax (rat brainstem): 370 ± 110 ng/mL
- MRT (rat brainstem): 7.53 ± 0.26 h
- Tmax (rat brainstem): 0.25 h
- AUC(0-t) (rat cerebellum): 990 ± 220 ng·h/mL
- Cmax (rat cerebellum): 150 ± 30 ng/mL
- MRT (rat cerebellum): 9.2 ± 0.61 h
- Tmax (rat cerebellum): 0.26 ± 0.02 h
- AUC(0-t) (rat cerebrum): 860 ± 200 ng·h/mL
- Cmax (rat cerebrum): 250 ± 72 ng/mL
- MRT (rat cerebrum): 8 ± 0.25 h
- Tmax (rat cerebrum): 0.26 ± 0.01 h
- AUC(0-t) (rat diencephalons): 1670 ± 380 ng·h/mL
- Cmax (rat diencephalons): 460 ± 130 ng/mL
- MRT (rat diencephalons): 7.7 ± 0.28 h
- Tmax (rat diencephalons): 0.27 ± 0.04 h
- AUC(0-t) (rat heart): 1430 ± 320 ng·h/mL
- Cmax (rat heart): 600 ± 180 ng/mL
- MRT (rat heart): 4.83 ± 0.13 h
- Tmax (rat heart): 0.25 h
- AUC(0-t) (rat hippocampus): 1790 ± 400 ng·h/mL
- Cmax (rat hippocampus): 470 ± 130 ng/mL
- MRT (rat hippocampus): 7.04 ± 0.23 h
- Tmax (rat hippocampus): 0.24 ± 0.05 h
- AUC(0-t) (rat kidney): 6270 ± 1430 ng·h/mL
- Cmax (rat kidney): 2050 ± 570 ng/mL
- MRT (rat kidney): 4.37 ± 0.1 h
- Tmax (rat kidney): 0.33 ± 0.09 h
- AUC(0-t) (rat liver): 5570 ± 2600 ng·h/mL
- Cmax (rat liver): 7840 ± 1740 ng/mL
- MRT (rat liver): 3.99 ± 0.08 h
- Tmax (rat liver): 0.21 ± 0.01 h
- AUC(0-t) (rat lung): 5930 ± 1320 ng·h/mL
- Cmax (rat lung): 1530 ± 450 ng/mL
- MRT (rat lung): 5.34 ± 0.15 h
- Tmax (rat lung): 0.26 ± 0.08 h
- AUC(0-t) (rat spleen): 3270 ± 740 ng·h/mL
- Cmax (rat spleen): 1540 ± 450 ng/mL
- MRT (rat spleen): 4.34 ± 0.09 h
- Tmax (rat spleen): 0.23 h
- AUC(0-t) (rat striatum): 2470 ± 570 ng·h/mL
- Cmax (rat striatum): 720 ± 210 ng/mL
- MRT (rat striatum): 7.69 ± 0.26 h
- Tmax (rat striatum): 0.21 ± 0.03 h
- elimination of THP from the tissues (rat tissues): rarely found after 8 h
- time after administration at which THP was detected in all the tissues examined (rat tissues): ≤ 5 min

Reference: article PMC6268586, “Effect of Wine and Vinegar Processing of Rhizoma Corydalis on the Tissue Distribution of Tetrahydropalmatine, Protopine and Dehydrocorydaline in Rats” (Molecules, 2012)
